Patent publication US20230218765A1, “SMALL MOLECULE DEGRADERS OF SHP2 PROTEIN” (THE REGENTS OF THE UNIVERSITY OF MICHIGAN, priority 2020, published 2023)
Where a SMILES comes first, the peptide text is derived from it. The star is where a group is joined. Cbz = O=C(OCc1ccccc1)*

How the values were obtained:
[1] = biological target: T1, SHP2 (Homo sapiens, UniProt Q06124); experiment: SHP2 degradation by Western blot in KYSE520 cells; conditions: for block of SHP2-D26-induced degradation of SHP2 protein: KYSE520, pre-treatment 1 h (VHL 10 µM, compound 4 10 µM, MLN4924 0.5 µM, MG132 3 µm), then SHP2-D26 0.1 µM
T1 sequence (Q06124 1-593): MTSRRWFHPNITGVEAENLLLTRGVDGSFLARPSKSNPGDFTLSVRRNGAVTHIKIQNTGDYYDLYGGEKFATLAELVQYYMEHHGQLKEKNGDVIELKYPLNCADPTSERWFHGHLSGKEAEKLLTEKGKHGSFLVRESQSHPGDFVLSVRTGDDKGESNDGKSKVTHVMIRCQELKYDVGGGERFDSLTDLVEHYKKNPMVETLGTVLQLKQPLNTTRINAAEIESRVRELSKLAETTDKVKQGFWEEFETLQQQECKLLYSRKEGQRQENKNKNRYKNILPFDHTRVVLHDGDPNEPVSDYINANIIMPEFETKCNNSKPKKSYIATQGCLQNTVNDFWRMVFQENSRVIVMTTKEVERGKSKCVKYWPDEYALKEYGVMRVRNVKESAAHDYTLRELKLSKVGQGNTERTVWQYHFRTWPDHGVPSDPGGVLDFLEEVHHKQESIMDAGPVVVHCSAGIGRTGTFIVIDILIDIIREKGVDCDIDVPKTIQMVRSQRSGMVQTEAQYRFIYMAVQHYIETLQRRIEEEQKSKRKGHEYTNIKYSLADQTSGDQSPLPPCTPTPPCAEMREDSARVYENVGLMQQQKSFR
Description: (§1) Western blotting and quantification were performed with regular western blot method and band quantification was performed using ImageJ. Treated cells were lysed by RIPA buffer supplemented with protease and phosphatase inhibitors. […] The net protein bands and loading controls are calculated by deducting the background from the inverted band value. The final relative quantification values are the ratio of the net band to net loading control.
(§2) The treated cells were harvested and the level of SHP2 protein was examined by blot analysis. GAPDH was used as a loading control.
(§3) SHP2 protein was examined by Western blotting and the protein level was quantified by densitometry and normalized to the corresponding density of the GAPDH protein. […] Cells were treated with 100 nM of SHP2-D26 for different times. SHP2 protein was examined by Western blotting and the GAPDH protein was used as the loading control.

[2] = biological target: T1, SHP2; experiment: SHP2 degradation by Western blot in MV4;11 cells; conditions: 0.1 µM
Description: as §1, §2, §3

% of SHP2 protein degradation in KYSE520 cell line ([1]; 0.1 µM)	% of SHP2 protein degradation in KYSE520 cell line ([1]; 1 µM)	% of SHP2 protein degradation in MV4;11 cell line [2]	SMILES	block of SHP2-D26-induced degradation of SHP2 protein [1]
9%	7%	–	Cc1ncsc1-c1ccc([C@@H](C)NC(=O)[C@H]2C[C@H](O)CN2C(=O)[C@H](NC(=O)CCCNC(=O)CC(=O)Nc2cccc(Sc3ncc(N4CCC(C)(N)CC4)nc3N)c2Cl)C(C)(C)C)cc1 [Compound 8]	–
13%	6%	–	Cc1ncsc1-c1ccc([C@@H](C)NC(=O)[C@H]2C[C@H](O)CN2C(=O)[C@H](NC(=O)CCCCNC(=O)CC(=O)Nc2cccc(Sc3ncc(N4CCC(C)(N)CC4)nc3N)c2Cl)C(C)(C)C)cc1 [Compound 9]	–
0%	3%	–	Cc1ncsc1-c1ccc([C@@H](C)NC(=O)[C@H]2C[C@H](O)CN2C(=O)[C@H](NC(=O)CCCCCNC(=O)CC(=O)Nc2cccc(Sc3ncc(N4CCC(C)(N)CC4)nc3N)c2Cl)C(C)(C)C)cc1 [Compound 10]	–
0%	0%	–	Cc1ncsc1-c1ccc([C@@H](C)NC(=O)[C@H]2C[C@H](O)CN2C(=O)[C@H](NC(=O)CCCCCCNC(=O)CC(=O)Nc2cccc(Sc3ncc(N4CCC(C)(N)CC4)nc3N)c2Cl)C(C)(C)C)cc1 [Compound 11]	–
20%	14%	–	Cc1ncsc1-c1ccc([C@@H](C)NC(=O)[C@H]2C[C@H](O)CN2C(=O)[C@H](NC(=O)CCCCCCCNC(=O)CC(=O)Nc2cccc(Sc3ncc(N4CCC(C)(N)CC4)nc3N)c2Cl)C(C)(C)C)cc1 [Compound 12]	–
81%	80%	–	Cc1ncsc1-c1ccc([C@@H](C)NC(=O)[C@H]2C[C@H](O)CN2C(=O)[C@H](NC(=O)CCCCCCCCNC(=O)CC(=O)Nc2cccc(Sc3ncc(N4CCC(C)(N)CC4)nc3N)c2Cl)C(C)(C)C)cc1 [Compound 13]	–
>95%	92%	–	Cc1ncsc1-c1ccc([C@@H](C)NC(=O)[C@H]2C[C@H](O)CN2C(=O)[C@H](NC(=O)CCCCCCCCCNC(=O)CC(=O)Nc2cccc(Sc3ncc(N4CCC(C)(N)CC4)nc3N)c2Cl)C(C)(C)C)cc1 [Compound 14]	–
>95%	>95%	–	Cc1ncsc1-c1ccc([C@@H](C)NC(=O)[C@H]2C[C@H](O)CN2C(=O)[C@H](NC(=O)CCCCCCCCCCNC(=O)CC(=O)Nc2cccc(Sc3ncc(N4CCC(C)(N)CC4)nc3N)c2Cl)C(C)(C)C)cc1 [Compound 15]	–
>95%	93%	–	Cc1ncsc1-c1ccc([C@@H](C)NC(=O)[C@H]2C[C@H](O)CN2C(=O)[C@H](NC(=O)CCCCCCCCCCCNC(=O)CC(=O)Nc2cccc(Sc3ncc(N4CCC(C)(N)CC4)nc3N)c2Cl)C(C)(C)C)cc1 [Compound 16]	–
>95%	>95%	–	Cc1ncsc1-c1ccc([C@@H](C)NC(=O)[C@H]2C[C@H](O)CN2C(=O)[C@H](NC(=O)CCCCCCCCCCNC(=O)CCC(=O)Nc2cccc(Sc3ncc(N4CCC(C)(N)CC4)nc3N)c2Cl)C(C)(C)C)cc1 [Compound 17]	–

Further lines, the compound ahead of its results:

SMILES	% of SHP2 protein degradation in KYSE520 cell line ([1]; 0.1 µM)	% of SHP2 protein degradation in KYSE520 cell line ([1]; 1 µM)	% of SHP2 protein degradation in MV4;11 cell line [2]	block of SHP2-D26-induced degradation of SHP2 protein [1]
Cc1ncsc1-c1ccc([C@@H](C)NC(=O)[C@H]2C[C@H](O)CN2C(=O)[C@H](NC(=O)CCCCCCCCCCCNC(=O)CCC(=O)Nc2cccc(Sc3ncc(N4CCC(C)(N)CC4)nc3N)c2Cl)C(C)(C)C)cc1 [Compound 18]	>95%	>95%	–	–
Cc1ncsc1-c1ccc([C@@H](C)NC(=O)[C@H]2C[C@H](O)CN2C(=O)[C@H](NC(=O)CCCCCCCCCCCNC(=O)CCCC(=O)Nc2cccc(Sc3ncc(N4CCC(C)(N)CC4)nc3N)c2Cl)C(C)(C)C)cc1 [Compound 19]	>95%	>95%	–	–
Cc1ncsc1-c1ccc([C@@H](C)NC(=O)[C@H]2C[C@H](O)CN2C(=O)[C@H](NC(=O)COCCOCCOCCNC(=O)CCC(=O)Nc2cccc(Sc3ncc(N4CCC(C)(N)CC4)nc3N)c2Cl)C(C)(C)C)cc1 [Compound 20]	80%	>95%	>95%	–
Cc1ncsc1-c1ccc([C@@H](C)NC(=O)[C@H]2C[C@H](O)CN2C(=O)[C@H](NC(=O)CCOCCOCCOCCNC(=O)CCC(=O)Nc2cccc(Sc3ncc(N4CCC(C)(N)CC4)nc3N)c2Cl)C(C)(C)C)cc1 [Compound 21]	32%	87%	85%	–
Cc1ncsc1-c1ccc([C@@H](C)NC(=O)[C@H]2C[C@H](O)CN2C(=O)[C@H](NC(=O)COCCOCCOCCOCCNC(=O)CCC(=O)Nc2cccc(Sc3ncc(N4CCC(C)(N)CC4)nc3N)c2Cl)C(C)(C)C)cc1 [Compound 22]	53%	>95%	95%	–
Cc1ncsc1-c1ccc([C@@H](C)NC(=O)[C@H]2C[C@H](O)CN2C(=O)[C@H](NC(=O)CCCCCCCCCCCN2CCN(CC(=O)Nc3cccc(Sc4ncc(N5CCC(C)(N)CC5)nc4N)c3Cl)CC2)C(C)(C)C)cc1 [Compound 24]	80%	>95%	6%	–
Cc1ncsc1-c1ccc([C@@H](C)NC(=O)[C@H]2C[C@H](O)CN2C(=O)[C@H](NC(=O)CCCCCCCCCCCCCCC(=O)Nc2cccc(Sc3ncc(N4CCC(C)(N)CC4)nc3N)c2Cl)C(C)(C)C)cc1 [Compound 25]	62%	90%	8%	–
Cc1ncsc1-c1ccc([C@@H](C)NC(=O)[C@H]2C[C@H](O)CN2C(=O)[C@H](NC(=O)CCCCCCCCCN2CCN(C(=O)CCC(=O)Nc3cccc(Sc4ncc(N5CCC(C)(N)CC5)nc4N)c3Cl)CC2)C(C)(C)C)cc1 [Compound 27]	>95%	>95%	>95%	–
Cc1ncsc1-c1ccc([C@@H](C)NC(=O)[C@H]2C[C@H](O)CN2C(=O)[C@H](NC(=O)CCCCCCCOc2ccc(NC(=O)CCC(=O)Nc3cccc(Sc4ncc(N5CCC(C)(N)CC5)nc4N)c3Cl)cc2)C(C)(C)C)cc1 [Compound 28]	>95%	>95%	90%	–
Cc1ncsc1-c1ccc([C@@H](C)NC(=O)[C@H]2C[C@H](O)CN2C(=O)[C@H](NC(=O)CCCCCCCCCCCNC(=O)CC(=O)Nc2cccc(Sc3ncc(N4CCC(C)(CN)CC4)nc3N)c2Cl)C(C)(C)C)cc1 [Compound 40]	>95%	>95%	>95%	–
Cc1ncsc1-c1ccc([C@H](C)NC(=O)[C@@H]2C[C@@H](O)CN2C(=O)[C@@H](NC(=O)CCOCCOCCOCCNC(=O)CC(=O)Nc2cccc(Sc3ncc(N4CCC5(CCC[C@@H]5N)CC4)nc3N)c2Cl)C(C)(C)C)cc1 [Compound 42]	>95%	>95%	94%	–
CC(C)C[C@@H](C=O)NC(=O)[C@H](CC(C)C)NC(=O)[C@H](CC(C)C)NC(=O)OCc1ccccc1 [MG132, reference compound] (Cbz-Leu-Leu-Leu-aldehyde)	–	–	–	effectively block degradation of SHP2 protein
NS(=O)(=O)OC[C@@H]1C[C@@H](n2ccc3c(N[C@H]4CCc5ccccc54)ncnc32)C[C@@H]1O [MLN4924, reference compound]	–	–	–	effectively block degradation of SHP2 protein
